{"source": "patent US4968696A", "about": "“N,N'-bis-L-amino acid-L-cystine-peptide containing amino acid preparations for oral parenteral nutrition” (Pfrimmer + Co. Pharmazeutische Werke Erlangen GmbH + co. KG, priority 1986, dated 1990)", "key": {"Solubility in water": {"assay": "Solubility in water", "assay_type": "physicochemical"}, "[1]": {"assay": "In vivo utilization: single injection via vena cava catheter, plasma peptide/amino acid concentrations by RP-HPLC after DANSYL derivatization", "parameters": "species or system male Wistar-rats", "conditions": "for tripeptide concentration in plasma: 20 μmol/100 g bw", "procedure": "For physiological investigation of the in vivo utilization of bis-amino acid cystine-peptides bis-glycyl-L-cystine and bis-L-alanyl-L-cystine were selected as examples and injected into male Wistar-rats in the form of a peptide single injection (50 μmole/100 g bw and 20 μmole/100 g bw respectively, injection volume 0.5-1 ml), by means of a vena cava-catheter within 5 s. The withdrawal of blood (1 ml in herparinized syringes) was 30, 60, 120, 180 and 300 s after application of the peptides. The plasma obtained by centrifugation was subsequently treated with 30% SSA (ratio of sample to SSA 10:1) for precipitation, maintained 1 h at 4° C., and finally centrifuged.\nFor determination of the bis-glycyl-L-cystine, mono-glycyl-L-cystine, bis-L-alanyl-L-cystine, mono-L-alanyl-L-cystine peptides as well as of the free amino acids glycine, alanine and cystine the precipitated plasma samples were analysed by high pressure liquid chromatography after pre-column derivatization with 5 dimethylaminonaphthaline-1-sulphonylchloride (DANSYL-Cl). The analytical conditions are summarized below:\nRP-HPLC after DANSYL-Precolumn Derivatization\nColumn: Spherisorb ODS 11 3 μm (125×4.6 mm)\n(A) 12.5 mM Na-phosphate-buffer of pH 6.6\nDetection: fluorescence Em 550/Ex 325"}, "[2]": {"assay": "Sterilization tests (heat sterilization of aqueous peptide solutions, analysed by capillary isotachophoresis and HPLC)", "assay_type": "physicochemical", "conditions": "heat sterilization (121° C.)", "procedure": "Starting from a stock solution of the tripeptide of the invention so obtained (2 mmol/1 in tris-buffer) solutions having pH-values of 5.5, 6.5, 7.5 and 8.5 were prepared by addition of 0.1 N HCL or KOH, respectively. Thereafter 0.1 ml each of these solutions were filled into ampoules purified with chromosulfuric acid, met sealed under vacuum and sterilized over 8, 12, 15 or 30 min, respectively.\nFurther respective solution of the cystinyl-bis-alanine-tripeptide were prepared and treated analogeously.\nThe stock solutions as well as the sterilized samples were analysized by means of capillary-isotachophoreses and HPLC. […] Therefore, said tripeptides are not only suitable for oral preparations, but also and in particular for the preparation of parenteral infusion solutions."}, "[3]": {"conditions": "cited from earlier work"}, "[4]": {"conditions": "30 s after injection, 50 μmole/100 g bw"}, "[5]": {"conditions": "first measurement (30 s), 20 μmole/100 g bw"}}, "note": "Where two headings read alike, the source gives them in different places. Where a SMILES comes first, the peptide text is derived from it. Bridges are numbered along the chain shown (N, C = ends). Roman numbers before positions name the chains, in order.", "data": [{"molecule": "C[C@H](N)C(=O)N[C@@H](CSSC[C@H](NC(=O)[C@H](C)N)C(=O)O)C(=O)O", "note": "[(ala-cys)2, N,N'-bis-L-alanyl-L-cystine] (I: H-Ala-Cys-OH / II: H-Ala-Cys-OH; disulfide I:2-II:2)", "values": [{"measurement": "solubility in water", "setting": "Solubility in water", "value": "well soluble in water"}, {"measurement": "time after injection within which the tripeptide could be detected in all 6 test animals", "setting": "[1]; 20 μmole/100 g bw", "value": "≤ 2", "unit": "min"}, {"measurement": "time of maximum plasma alanine concentration", "setting": "[1]; 20 μmole/100 g bw", "value": 30, "unit": "s"}, {"measurement": "time of maximum plasma cystine concentration", "setting": "[1]; 20 μmole/100 g bw", "value": 60, "unit": "s"}, {"measurement": "tripeptide concentration in plasma", "setting": "[1]; 30 s after injection", "value": 280, "unit": "µM"}, {"measurement": "concentration of intermediate hydrolysis product ala-(cys)2 relative to the tripeptide", "setting": "[1]; 30 s after injection, 20 μmole/100 g bw", "value": "about 5 fold"}, {"measurement": "detection of tripeptide in plasma at the last sampling", "setting": "[1]; 300 s after injection, 20 μmole/100 g bw", "value": "could not be detected"}, {"measurement": "maximum plasma cystine concentration versus starting concentration", "setting": "[1]; after 60 s, 20 μmole/100 g bw", "value": 23, "unit": "times"}, {"measurement": "plasma alanine concentration versus starting level", "setting": "[1]; after 300 s, 20 μmole/100 g bw", "value": 3, "unit": "times"}, {"measurement": "plasma alanine concentration versus starting level", "setting": "[1]; at the beginning (30 s), 20 μmole/100 g bw", "value": "~7", "unit": "times"}, {"measurement": "level at time molar at 0.05 h", "setting": "[1]; male, Wistar, rat, plasma, iv, 20 umole/100 g bw, heading: tripeptide concentration in plasma, 180 s after injection, detected in one sample only, 20 μmole/100 g bw", "value": "~20", "unit": "µM"}, {"measurement": "half-life", "setting": "[1]; male, Wistar, rat, plasma, iv, 20 μmole/100 g bw, concluded from data, not calculable, read-out: plasma half-life", "value": "< 2", "unit": "min"}, {"measurement": "clearance from the plasma after single injection", "setting": "[1]; rat", "value": "rapidly cleared from the plasma"}, {"measurement": "stability upon heat sterilization in aqueous solution", "setting": "[2]", "value": "remain stable upon heat sterilization"}]}, {"molecule": "NCC(=O)N[C@@H](CSSC[C@H](NC(=O)CN)C(=O)O)C(=O)O", "note": "[(gly-cys)2, N,N'-bis-glycyl-L-cystine] (I: H-Gly-Cys-OH / II: H-Gly-Cys-OH; disulfide I:2-II:2)", "values": [{"measurement": "solubility in water (prior art statement)", "setting": "[3]", "value": "soluble"}, {"measurement": "tripeptide plasma concentration 5 min after injection relative to the value after 30 s", "setting": "[1]; 50 μmole/100 g bw single injection, rat plasma", "value": "about 10%"}, {"measurement": "tripeptide concentration in plasma", "setting": "[1]; 30 s after injection", "value": 655, "unit": "µM"}, {"measurement": "plasma cystine concentration versus starting concentration", "setting": "[1]; [4]", "value": 14, "unit": "fold"}, {"measurement": "plasma glycine concentration versus starting concentration", "setting": "[1]; [4]", "value": 12, "unit": "fold"}, {"measurement": "plasma cystine concentration versus starting value", "setting": "[1]; 5 min after injection, 50 μmole/100 g bw", "value": "about 30 times"}, {"measurement": "plasma cystine concentration versus starting point", "setting": "[1]; [5]", "value": 10, "unit": "fold"}, {"measurement": "plasma glycine concentration versus starting point", "setting": "[1]; [5]", "value": 5, "unit": "fold"}, {"measurement": "half-life", "setting": "[1]; male, Wistar, rat, plasma, iv, two compartment model, residual method, n=5, 50 μmole/100 g bw, read-out: calculated half-life (converted)", "value": 4, "unit": "min"}, {"measurement": "clearance from the plasma after single injection", "setting": "[1]; rat", "value": "rapidly cleared from the plasma"}]}, {"molecule": "C[C@H](NC(=O)[C@@H](N)CSSC[C@H](N)C(=O)N[C@@H](C)C(=O)O)C(=O)O", "note": "[L-cystinyl-bis-L-alanine] (I: H-Cys-Ala-OH / II: H-Cys-Ala-OH; disulfide I:1-II:1)", "values": [{"measurement": "solubility in water", "setting": "Solubility in water", "value": "well soluble in water"}, {"measurement": "stability upon heat sterilization in aqueous solution", "setting": "[2]", "value": "unstable upon heat sterilization"}, {"measurement": "time of heat sterilization after which other derivatives are formed", "setting": "[2]", "value": "≤ 8", "unit": "min"}]}, {"molecule": "CC(=O)N[C@@H](CSSC[C@H](NC(C)=O)C(=O)O)C(=O)O", "note": "[N,N'-bis-acetylcystine, reference compound]", "values": [{"measurement": "solubility in water (prior art statement)", "setting": "[3]", "value": "relatively high solubility in water"}]}]}
